In patent publication US4191780A, “Bromhexine derivatives and process for making same” (priority 1978, dated 1980):
“Also recorded” adds a separate entry of the source.

Experiments:
[1] = tested on: bronchial secretion; conditions: animal experiments; Engelhorn 1966, Merker 1966, Boyd 1966; cited from earlier work
[2] = tested on: various types of cough; conditions: animal experiments; Engelhorn 1966, Merker 1966, Boyd 1966; cited from earlier work
[3] = Acute toxicity in rats treated orally; assay type: in vivo; conditions: oral
[4] = Long-term toxicity in rats: urine analysis; assay type: in vivo
Description: Urine analysis is carried out on 6 animals per group (3 males and 3 females) before as well as 30 and 60 days after treatment. Control group and the animals receiving 250 mg/kg Bromhexine and 350 mg/kg IFT 1026 respectively are observed.
The amount, aspect, colour, pH value, albumin, glucose, bilirubin levels and ketone bodies are recorded using also Ames reactive stripes.

[5] = tested on: blood pressure and heart rate; test: Action on blood pressure and heart rate in the anesthetized rat; assay type: in vivo; conditions: intraperitoneal
Description: After intraperitoneal administration of increasing doses of IFT 1026, blood pressure, heart rate and the amplitude of heart contractions are unchanged. The effect of IFT 1026 at the dose of 450 mg/kg on blood pressure in the anesthesized rat is exemplified by the graph in FIG. No. 1.
FIG. 1--Arterial pressure recorded in the anaesthetized rat before and after IFT 1026 administration.

[6] = tested on: amphetamine-induced stereotypies; test: Action on the amphetamine-induced stereotypies and toxicity on mice; conditions: 500 mg/kg/10 ml p.o., 60 min before dl-amphetamine 16 mg/kg/ml i.p.
Description: Stereotypies and death are caused 60 min. after treatment with IFT 1026 (500 mg/kg/10 ml p.o.) by injecting dl-amphetamine (16 mg/kg/ml i.p.) to groups of 10 male albino Swiss mice per cage.

[7] = tested on: Cough elicited by 15% citric acid spray; test: Antitussive effect in Guinea-pigs and mice (overall); assay type: in vivo; conditions: mice (oral) and Guinea-pigs (i.p.)
Description: (6) Antitussive effect in Guinea-pigs and mice
The effect was tested 1 hour after oral administration and 30 min. after intraperitoneal application of the antitussive agents on mice and Guinea-pigs respectively.

Compound | stimulation of bronchial secretion [1] | effects on various types of cough [2] | behaviour / clinical signs ([3]; high doses (up to 3000 mg/kg)) | lethal cases ([3]; increasing doses up to 3000 mg/kg, up to the seventh day after treatment) | urine amount, aspect, colour, pH, albumin, glucose, bilirubin, ketone bodies ([4]; 250 mg/kg Bromhexine, 350 mg/kg IFT 1026, 30 and 60 days) | impairment in the kidney ([4]; 350 mg/kg IFT 1026) | amplitude of heart contractions ([5]; increasing doses) | heart rate ([5]; increasing doses) | blood pressure ([5]; rat, increasing doses (450 mg/kg in FIG. 1)) | amphetamine-induced death [6] | amphetamine-induced stereotypies [6] | antitussive effect compared in terms of the parent compound (Bromhexine) [7] | antitussive effect compared with Bromhexine [7]
CN(Cc1cc(Br)cc(Br)c1N)C1CCCCC1 [Bromhexine, N-cyclohexyl-N-methyl-2-(2-amino-3,5-dibromo)benzylammonium chloride] | marked stimulation | depressing effects | – | – | – | – | – | – | – | – | – | – | –
COc1ccccc1OCC(=O)Nc1c(Br)cc(Br)cc1CN(C)C1CCCCC1 [IFT 1026, N-(2-guaiacol-glycolyl-amino-3,5-dibromobenzyl)N-cyclohexylmethylamine] | – | – | slight depression in behaviour, occasional tremor and stiffness | no lethal cases | no changes occur in said parameters | no impairment in the kidney | unchanged | unchanged | unchanged | not changed | not changed | the same when compared in terms of the parent compound | slightly weaker than Bromhexine; also recorded: approximately the same as that of Bromhexine
